Results as given in US10232047B2, “Topical oil composition for the treatment of fungal infections” (VYOME BIOSCIENCES PVT LTD., priority 2011, dated 2019).
Each block holds one compound with its values, some of them ahead of it.

Assays:
[1] = test system: Malassezia furfur (MTCC 1374); test: MIC by agar dilution method in Leeming Notman Medium; type: cell-based; parameters: key: “+” indicates growth of fungus; “−” indicates no growth of fungus; details: M. furfur
Method: The Minimum Inhibitory Concentration (MIC) is considered as an index for indicating Anti-fungal efficacy. Therefore lower the value of MIC of the composition, the better is its anti-fungal efficacy.
Method: The in vitro activities of some of the oil compositions containing piroctone olamine against Malassezia furfur (MTCC 1374) were determined by agar dilution methods (Jan Faergemann, et al Acta Derm Venereol, (2006), 86:312; Irith Wiegand, et al Nature Protocols (2008), 3:163) Appropriate dilutions of solubilized antifungal compositions were added to molten Leeming Notman Medium. Once the plates were set, M. furfur innoculum adjusted to appropriate cfu/ml was streaked on the agar plates and incubated for 6 days. […] The MIC is defined as as the lowest concentration of antifungal agents that inhibits visible growth of fungus.
Method: The in vitro activities of some of the oil compositions containing ketoconazole against Malassezia furfur (MTCC 1374) were determined by agar dilution methods. Appropriate dilutions of antifungal compositions were added to molten Leeming Notman Medium. Once the plates were set, M. furfur innoculum adjusted to appropriate cfu/ml was streaked on the agar plates and incubated for 6 days. […] The MIC is defined as the lowest tested dilution of antifungal active that yields no growth.
B) Study of MIC of Oil Compositions Devoid of C-11 or Greater Fatty Acids/Esters Containing Antifungal Agent Piroctone Olamine Against M. furfur Under in vitro Conditions.

[2] = test system: M. obtusa; test: MIC of oil compositions against M. obtusa; type: cell-based; parameters: key: “+” indicates growth of fungus; “−” indicates no growth of fungus
[3] = test system: M. furfur (MTCC 1374); test: Lipid assimilation in vitro assay: growth of M. furfur on Sabouraud Dextrose agar supplemented with fatty acids/esters or oils; type: cell-based, Malassezia furfur; details: up to 6 days
Excerpt: (§1) Malassezia species are lipophilic unipolar yeasts recognized as commensals of skin that may be pathogenic under certain conditions (Indian Journal of Medical Microbiology, (2004) 22 (3):179-181). To compare lipid requirements of the fungus most closely associated with dandruff/seborrheic dermatitis, the best studied Malassezia species is M. furfur. Lipid assimilation in vitro assay was designed to investigate lipid effect on growth of M. furfur (MTCC 1374).
Method: Briefly, Sabouraud Dextrose containing low-melt agar was melted, cooled to 38° C. Fatty acids/esters constituents eg, capric acid, caprylic acid, linoleic acid, oleic acid, lauric acid, palmitic acid, ethyl oleate, isopropyl myristate and oils containing fatty acid/esters eg, coconut oil, mustard oil etc., were added to study the growth of the fungus (Kaw Bing CHUA, et al Malaysian J Pathol (2005) 27(2): 99). After solidification, agar plates were streaked with M. furfur innoculum adjusted to appropriate cfu/ml, aseptically. Positive control with 2% olive oil and negative control without fatty substance were also maintained.
as §1, with “lipophilic,” for “lipophilic”, “conditions.” for “conditions (Indian Journal of Medical Microbiology, (2004) 22 (3):179-181).”, “A lipid” for “Lipid”, “effect <C-11 fatty acid or their esters” for “effect”
Briefly, Sabouraud Dextrose containing low-melt agar was melted and cooled to 38° C. Fatty acids/esters constituents, e.g., caprylic acid, capric acid and Monocaprylate of propylene glycol, were added in 2% concentration to study the growth of the fungus. After solidification, agar plates were streaked with M. furfur innoculum adjusted to appropriate cfu/ml, aseptically. Positive control with 2% olive oil and negative control without fatty substance were also maintained.
A lipid assimilation in vitro assay was designed to investigate lipid effect >C-10 fatty acid or their esters on growth of M. furfur (MTCC 1374). Sabouraud Dextrose containing low-melt agar was melted and cooled to 38° C. Fatty acids/esters constituents, e.g. fatty acids or esters, such as lauric acid, palmitic acid, myristic acid, oleic acid, linoleic acid, isopropyl myristate, ethyl oleate, mustard oils, coconut oil were added at different concentration to study the growth of the fungus. Positive control with 2% olive oil and negative control without fatty substance were also maintained. After solidification, agar plates were streaked with M. furfur innoculum adjusted to appropriate cfu/ml, aseptically.

[4] = Table 6, compositions of Table 5
[5] = piroctone olamine oil compositions, incubated 6 days
[6] = Example 6B, different concentration (olive oil 2%)

Structure (SMILES): CC(=O)N1CCN(c2ccc(OCC3COC(Cn4ccnc4)(c4ccc(Cl)cc4Cl)O3)cc2)CC1 (stereo not drawn) [Keto in DMSO, Ketoconazole]
Growth of fungus at concentration 0.0625 μg/ml (MIC determination) ([1]; 0.0625 μg/ml, ketoconazole oil compositions, incubated 6 days): + | Growth of fungus at concentration 0.125 μg/ml (MIC determination) ([1]; 0.125 μg/ml, ketoconazole oil compositions, incubated 6 days): + | Growth of fungus at concentration 0.25 μg/ml (MIC determination) ([1]; 0.25 μg/ml, ketoconazole oil compositions, incubated 6 days): − | Growth of fungus at concentration 0.5 μg/ml (MIC determination) ([1]; 0.5 μg/ml, ketoconazole oil compositions, incubated 6 days): − | Growth of fungus at concentration 1 μg/ml (MIC determination) ([1]; 1 μg/ml, ketoconazole oil compositions, incubated 6 days): − | Growth of fungus at concentration 2 μg/ml (MIC determination) ([1]; 2 μg/ml, ketoconazole oil compositions, incubated 6 days): −

Growth of fungus at concentration 8 μg/ml (MIC determination) [1, 4]: + | Growth of fungus at concentration 8 μg/ml (MIC determination) [1, 5]: + | Growth of fungus at concentration 16 μg/ml (MIC determination) [1, 4]: + | Growth of fungus at concentration 16 μg/ml (MIC determination) [1, 5]: + | Growth of fungus at concentration 32 μg/ml (MIC determination) [1, 4]: − | Growth of fungus at concentration 32 μg/ml (MIC determination) [1, 5]: − | Growth of fungus at concentration 64 μg/ml (MIC determination) [1, 4]: − | Growth of fungus at concentration 64 μg/ml (MIC determination) [1, 5]: − | Growth of fungus at concentration 4 μg/ml (MIC determination) ([2]; 4 μg/ml): + | Growth of fungus at concentration 8 μg/ml (MIC determination) ([2]; 8 μg/ml): + | Growth of fungus at concentration 16 μg/ml (MIC determination) ([2]; 16 μg/ml): + | Growth of fungus at concentration 32 μg/ml (MIC determination) ([2]; 32 μg/ml): − | Growth of fungus at concentration 64 μg/ml (MIC determination) ([2]; 64 μg/ml): −
Structure (SMILES): Cc1cc(CC(C)CC(C)(C)C)n(O)c(=O)c1.NCCO (stereo not drawn) [PO in DMSO, Piroctone olamine]

Structure (SMILES): CCCCCCCCCC(=O)O [capric acid]
Growth of M. furfur with the substance as nutrient in culture media ([3]; Example 3): no growth | Growth of M. furfur with the substance as nutrient in culture media ([3]; Example 6A, 2% concentration): no growth

Structure (SMILES): CCCCCCCC(=O)O [caprylic acid]
Growth of M. furfur with the substance as nutrient in culture media ([3]; Example 3): no growth | Growth of M. furfur with the substance as nutrient in culture media ([3]; Example 6A, 2% concentration): no growth

Structure (SMILES): CCCCCCCC/C=C\CCCCCCCC(=O)OCC [ethyl oleate]
Growth of M. furfur with the substance as nutrient in culture media ([3]; Example 3): confluent growth | Growth of M. furfur with the substance as nutrient in culture media [3, 6]: confluent growth

Structure (SMILES): CCCCCCCCCCCCCC(=O)OC(C)C [isopropyl myristate]
Growth of M. furfur with the substance as nutrient in culture media ([3]; Example 3): confluent growth | Growth of M. furfur with the substance as nutrient in culture media [3, 6]: confluent growth

Structure (SMILES): CCCCCCCCCCCC(=O)O [lauric acid]
Growth of M. furfur with the substance as nutrient in culture media ([3]; Example 3): confluent growth | Growth of M. furfur with the substance as nutrient in culture media [3, 6]: confluent growth

Structure (SMILES): CCCCC/C=C\C/C=C\CCCCCCCC(=O)O [linoleic acid]
Growth of M. furfur with the substance as nutrient in culture media ([3]; Example 3): confluent growth | Growth of M. furfur with the substance as nutrient in culture media [3, 6]: confluent growth

Structure (SMILES): CCCCCCCCCCCCCC(=O)O [myristic acid]
Growth of M. furfur with the substance as nutrient in culture media [3, 6]: confluent growth

Structure (SMILES): CCCCCCCC/C=C\CCCCCCCC(=O)O [oleic acid]
Growth of M. furfur with the substance as nutrient in culture media ([3]; Example 3): confluent growth | Growth of M. furfur with the substance as nutrient in culture media [3, 6]: confluent growth

Structure (SMILES): CCCCCCCCCCCCCCCC(=O)O [palmitic acid]
Growth of M. furfur with the substance as nutrient in culture media ([3]; Example 3): confluent growth | Growth of M. furfur with the substance as nutrient in culture media [3, 6]: confluent growth
